Our source for the IC50, EC50 and AC50 values is ChEMBL document CHEMBL1201862, “PubChem BioAssay data set” (2004).

Structures are written as SMILES. Active and inactive are the calls of the source. A value given as a limit tells only on which side of the number the result lay.

In assay [1] the target is Protein Wnt-3a (Mus musculus, UniProt P27467). As to the kind of experiment: antagonism of Wnt3a pathway luciferase reporter – Wnt-LIGHT cells, luminescence, selectivity assay for Gli-SUFU antagonist project, dose response (AID 651570).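 Note: Wnt-LIGHT reporter cells stimulated with conditioned medium from Wnt3a-producing cells.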 It counts as functional. As to conditions: read-out: IC50_Mean. On the technique in general: Reporter assays use an easily measured gene product as a stand-in for the process of interest.
Sequence of Protein Wnt-3a (P27467 whole entry): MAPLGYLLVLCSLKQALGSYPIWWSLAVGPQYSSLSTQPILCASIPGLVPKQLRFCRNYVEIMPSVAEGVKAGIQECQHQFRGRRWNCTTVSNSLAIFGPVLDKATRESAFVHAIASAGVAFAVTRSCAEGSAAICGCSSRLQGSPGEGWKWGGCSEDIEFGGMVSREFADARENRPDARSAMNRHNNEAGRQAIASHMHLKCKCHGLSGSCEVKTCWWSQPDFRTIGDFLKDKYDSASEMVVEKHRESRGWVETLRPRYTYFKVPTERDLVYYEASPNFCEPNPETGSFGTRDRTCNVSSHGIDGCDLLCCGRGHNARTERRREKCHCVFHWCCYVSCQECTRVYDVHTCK

The nature of assay [2]: nonselective StAR promoter luciferase inhibitors – cell-based, luminescence, luciferase reporter, counter-screen for LRH-1 inverse agonist project, dose response (AID 651969). It counts as functional.
Assay [3] has as its target T1, Apoptotic protease-activating factor 1 (Homo sapiens, UniProt O14727).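 Note: caspase-3 cleavage of fluorogenic Rh110 DEVD substrate downstream of apoptosome activation.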
T1 sequence (O14727 whole entry): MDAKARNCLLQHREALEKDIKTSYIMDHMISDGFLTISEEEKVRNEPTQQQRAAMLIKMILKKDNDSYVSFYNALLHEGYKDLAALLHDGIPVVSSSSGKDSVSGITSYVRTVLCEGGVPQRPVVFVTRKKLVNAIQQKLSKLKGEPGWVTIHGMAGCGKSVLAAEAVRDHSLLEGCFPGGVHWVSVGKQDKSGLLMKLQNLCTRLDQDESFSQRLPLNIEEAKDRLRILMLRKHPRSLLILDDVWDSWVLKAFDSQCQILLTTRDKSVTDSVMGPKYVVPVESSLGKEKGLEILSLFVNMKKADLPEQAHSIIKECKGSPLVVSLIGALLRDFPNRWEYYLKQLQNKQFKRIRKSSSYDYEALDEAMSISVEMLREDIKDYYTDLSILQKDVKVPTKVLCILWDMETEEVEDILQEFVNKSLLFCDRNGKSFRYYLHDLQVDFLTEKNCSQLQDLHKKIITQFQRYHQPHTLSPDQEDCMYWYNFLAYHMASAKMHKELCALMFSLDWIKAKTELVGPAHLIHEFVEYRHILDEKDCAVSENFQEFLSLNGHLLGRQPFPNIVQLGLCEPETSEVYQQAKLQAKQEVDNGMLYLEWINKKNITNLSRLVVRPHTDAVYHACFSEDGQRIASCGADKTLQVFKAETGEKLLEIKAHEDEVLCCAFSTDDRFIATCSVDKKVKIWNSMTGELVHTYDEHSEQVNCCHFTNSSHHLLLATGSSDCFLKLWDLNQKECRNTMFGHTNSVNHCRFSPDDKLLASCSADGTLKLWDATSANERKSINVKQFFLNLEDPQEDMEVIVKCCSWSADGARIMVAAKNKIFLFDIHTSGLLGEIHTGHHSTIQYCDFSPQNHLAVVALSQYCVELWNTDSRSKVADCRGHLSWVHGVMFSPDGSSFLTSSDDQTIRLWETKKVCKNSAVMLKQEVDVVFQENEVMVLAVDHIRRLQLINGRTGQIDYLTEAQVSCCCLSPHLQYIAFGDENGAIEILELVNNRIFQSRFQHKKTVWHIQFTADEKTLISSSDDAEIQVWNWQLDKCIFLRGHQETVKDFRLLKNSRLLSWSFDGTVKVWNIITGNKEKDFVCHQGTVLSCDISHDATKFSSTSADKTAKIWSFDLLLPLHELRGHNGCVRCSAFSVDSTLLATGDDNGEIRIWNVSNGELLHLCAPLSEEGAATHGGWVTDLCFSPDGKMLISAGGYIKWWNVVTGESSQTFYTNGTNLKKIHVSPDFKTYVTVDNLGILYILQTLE
Briefly: SAR analysis of small molecule Activators of Apaf-1 in a Fluorescent assay. It counts as functional. To be noted: read-out: EC50_Mean.

Assay [4] has as its target T2, Corticotropin-releasing factor receptor 2/Corticotropin-releasing factor-binding protein (Homo sapiens, UniProt P24387+Q13324).
T2 sequence (Q13324 whole entry): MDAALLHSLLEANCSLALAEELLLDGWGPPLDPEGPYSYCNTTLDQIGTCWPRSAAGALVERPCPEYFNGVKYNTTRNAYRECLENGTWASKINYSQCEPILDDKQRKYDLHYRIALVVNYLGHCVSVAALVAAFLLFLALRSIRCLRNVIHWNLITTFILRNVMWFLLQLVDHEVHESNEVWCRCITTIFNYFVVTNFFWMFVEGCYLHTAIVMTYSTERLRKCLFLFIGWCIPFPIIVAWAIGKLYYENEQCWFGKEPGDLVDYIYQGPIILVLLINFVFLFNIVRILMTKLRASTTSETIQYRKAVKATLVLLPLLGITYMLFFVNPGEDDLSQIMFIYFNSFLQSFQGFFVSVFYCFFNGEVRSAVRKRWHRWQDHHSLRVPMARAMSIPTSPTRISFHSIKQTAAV
T2 sequence (P24387 whole entry): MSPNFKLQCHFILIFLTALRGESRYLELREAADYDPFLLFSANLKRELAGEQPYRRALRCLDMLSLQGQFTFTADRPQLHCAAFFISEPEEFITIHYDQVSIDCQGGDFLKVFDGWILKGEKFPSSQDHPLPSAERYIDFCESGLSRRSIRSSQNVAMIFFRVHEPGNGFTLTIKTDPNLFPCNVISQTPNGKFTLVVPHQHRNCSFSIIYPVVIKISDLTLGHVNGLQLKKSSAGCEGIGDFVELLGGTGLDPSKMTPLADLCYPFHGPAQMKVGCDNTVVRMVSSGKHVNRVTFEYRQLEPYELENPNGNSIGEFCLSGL
Briefly: activators of CRF receptor 2 with binding protein – uHTS hits, confirmation (AID 602473). It counts as functional. As to conditions: read-out: EC50_Mean.

A short description of assay [5]: blockers of CRF-binding protein–CRF-R2 complex – cell-based, uHTS hits, 384-well, dose response (AID 651639). The format is functional, Homo sapiens. As to conditions: read-out: IC50_Mean.
The target of assay [6] is T3, Short transient receptor potential channel 4 (Mus musculus, UniProt Q9QUQ5).
T3 sequence (Q9QUQ5 whole entry): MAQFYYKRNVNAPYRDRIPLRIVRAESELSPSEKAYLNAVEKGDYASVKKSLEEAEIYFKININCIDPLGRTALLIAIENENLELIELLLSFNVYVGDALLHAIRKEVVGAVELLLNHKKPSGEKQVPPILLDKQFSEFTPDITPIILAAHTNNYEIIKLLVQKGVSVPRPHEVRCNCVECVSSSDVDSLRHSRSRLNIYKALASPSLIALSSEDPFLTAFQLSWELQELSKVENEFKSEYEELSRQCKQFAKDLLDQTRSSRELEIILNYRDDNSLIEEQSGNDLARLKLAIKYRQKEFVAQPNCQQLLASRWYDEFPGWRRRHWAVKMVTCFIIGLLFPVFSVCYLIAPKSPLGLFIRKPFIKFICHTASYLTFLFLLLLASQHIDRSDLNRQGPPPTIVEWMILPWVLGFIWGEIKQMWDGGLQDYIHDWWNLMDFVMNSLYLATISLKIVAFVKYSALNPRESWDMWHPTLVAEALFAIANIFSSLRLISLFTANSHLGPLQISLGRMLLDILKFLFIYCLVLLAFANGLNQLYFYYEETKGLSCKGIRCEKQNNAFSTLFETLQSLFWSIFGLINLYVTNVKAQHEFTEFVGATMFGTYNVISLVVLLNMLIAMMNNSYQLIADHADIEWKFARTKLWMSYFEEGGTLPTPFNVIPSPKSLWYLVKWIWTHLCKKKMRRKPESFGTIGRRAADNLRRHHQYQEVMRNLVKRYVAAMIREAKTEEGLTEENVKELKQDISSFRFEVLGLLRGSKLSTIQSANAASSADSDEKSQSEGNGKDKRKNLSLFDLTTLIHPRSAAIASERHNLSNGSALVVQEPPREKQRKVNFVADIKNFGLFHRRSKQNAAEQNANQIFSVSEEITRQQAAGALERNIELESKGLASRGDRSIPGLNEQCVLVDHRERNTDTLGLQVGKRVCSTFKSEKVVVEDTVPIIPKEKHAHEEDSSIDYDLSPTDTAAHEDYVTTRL
Briefly: block of DAMGO-driven TRPC4 calcium entry – cell-based, HEK293 TRPC4/mu-opioid, Fluo-4 calcium, dose response (AID 434942).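 Note: potency of inhibitors blocking the TRPC4 calcium response.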 The format is functional.

In assay [7] the target is T2, Corticotropin-releasing factor receptor 2/Corticotropin-releasing factor-binding protein. Briefly: Dose Response confirmation of uHTS hits for small molecule antagonists of the CRF-binding protein and CRF-R2 receptor complex. The format is functional. As to conditions: read-out: IC50_Mean.
Assay [8] deals with T4, Microphthalmia-associated transcription factor (Homo sapiens, UniProt O75030).
T4 sequence (O75030 whole entry): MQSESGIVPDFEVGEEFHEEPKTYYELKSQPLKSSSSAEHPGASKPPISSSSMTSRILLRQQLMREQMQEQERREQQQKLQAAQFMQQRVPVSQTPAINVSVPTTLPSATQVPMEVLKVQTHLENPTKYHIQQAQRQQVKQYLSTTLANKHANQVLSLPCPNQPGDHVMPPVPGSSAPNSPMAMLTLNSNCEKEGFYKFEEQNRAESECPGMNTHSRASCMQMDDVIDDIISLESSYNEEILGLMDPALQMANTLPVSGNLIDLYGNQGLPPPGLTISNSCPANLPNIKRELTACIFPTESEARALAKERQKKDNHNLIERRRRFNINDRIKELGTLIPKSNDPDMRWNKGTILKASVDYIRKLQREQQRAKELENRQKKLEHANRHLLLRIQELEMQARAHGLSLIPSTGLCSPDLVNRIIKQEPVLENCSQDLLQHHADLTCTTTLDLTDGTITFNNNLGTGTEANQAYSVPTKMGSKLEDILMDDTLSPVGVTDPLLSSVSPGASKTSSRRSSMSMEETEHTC
As to the kind of experiment: reducers of TRPM1 reporter luminescence, concentration series – cell-based, SK-MEL-5, cherry-picked, set 3, MITF inhibitor project, dose response (AID 493073).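 Note: SK-MEL-5 melanoma cells with luciferase driven by the MITF target TRPM1 promoter.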 It counts as functional.

The nature of assay [9]: NIH-3T3 fibroblast cytotoxicity, dose response, cytotoxicity control, cell-based, fluorescence, Alamar Blue, secondary assay (AID 2327).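 Note: NIH-3T3 mouse fibroblasts cultured with fluconazole at 8 µg/mL.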 The format is functional. (In general: The colour change of resazurin is a common sign of viable cells or microbes.)
Assay [10] concerns INS1. Briefly: INS-1E survival protection against cytokine death – cell-based, luminescence, retest, dose response (AID 449756).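 Note: cell death triggered by IL-1 beta plus TNF-alpha plus IFN-gamma mixture; protective hits raise ATP signal compared with cytokine alone wells.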 The format is functional. To be noted: Rattus norvegicus.
Assay [11] is described as follows: fluconazole-exposed Candida albicans growth modulators – fluorescence, retest, confirmation (AID 2467). It counts as functional, cell-based.
Assay [12] addresses T5, DNA repair protein RAD52 homolog (Homo sapiens, UniProt P43351).
T5 sequence (P43351 whole entry): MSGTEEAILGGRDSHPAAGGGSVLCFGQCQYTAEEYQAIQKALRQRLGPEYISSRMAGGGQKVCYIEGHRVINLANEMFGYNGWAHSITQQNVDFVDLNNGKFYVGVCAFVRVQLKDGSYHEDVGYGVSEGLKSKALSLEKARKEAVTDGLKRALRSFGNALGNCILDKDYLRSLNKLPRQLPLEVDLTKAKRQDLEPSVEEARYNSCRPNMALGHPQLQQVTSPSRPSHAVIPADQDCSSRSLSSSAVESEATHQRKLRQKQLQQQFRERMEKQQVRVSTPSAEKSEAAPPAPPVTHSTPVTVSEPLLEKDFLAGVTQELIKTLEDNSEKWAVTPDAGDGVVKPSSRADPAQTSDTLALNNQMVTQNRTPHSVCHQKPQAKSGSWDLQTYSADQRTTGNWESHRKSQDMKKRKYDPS
The format is functional, biochemical.

The target of assay [13] is Photoreceptor-specific nuclear receptor (Homo sapiens, UniProt Q9Y5X4). The format is functional, cell-based.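 Note: CHO-S cells with Gal4-NCOR and VP16-NR2E3 two-hybrid luciferase reporter.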
Sequence of Photoreceptor-specific nuclear receptor (Q9Y5X4 whole entry, the tested form may be a part): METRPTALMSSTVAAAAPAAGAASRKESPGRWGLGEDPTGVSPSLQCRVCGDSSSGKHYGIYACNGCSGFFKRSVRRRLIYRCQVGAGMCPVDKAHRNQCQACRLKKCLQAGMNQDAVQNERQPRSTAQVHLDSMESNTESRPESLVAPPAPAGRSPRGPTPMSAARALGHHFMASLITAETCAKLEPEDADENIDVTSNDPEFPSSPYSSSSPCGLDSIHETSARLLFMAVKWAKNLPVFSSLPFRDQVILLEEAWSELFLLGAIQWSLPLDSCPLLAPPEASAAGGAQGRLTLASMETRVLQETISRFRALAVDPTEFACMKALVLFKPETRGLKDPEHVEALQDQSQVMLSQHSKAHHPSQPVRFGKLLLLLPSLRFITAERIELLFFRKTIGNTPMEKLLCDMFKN

With `Cc1nnsc1C(=O)NC1CCCc2c1cnn2-c1ccc(F)cc1F` (stereo not given), the IC50 in assay [1] was 3.91 µM (active).
Take `Cc1cccc(NC(=O)CSc2nc(O)c3c[nH]nc3n2)c1C`: the IC50 in [2] was 35.9 µM (inactive).
On to `Cc1ccc(O)c(NC(=O)C2CC(c3ccc(F)cc3)=NO2)c1` (stereo not given), for which the EC50 in assay [3] was > 100 µM (inactive).
On to `Cc1ccc(C(C)(C)C)cc1S(=O)(=O)Nc1nc2ccccc2nc1Cl`, for which the EC50 in [4] was 31.4 µM (active); in assay [6], 6.68 µM (active). The values for the IC50 in [5] and in assay [7] were 12.9 µM (active) and 6.04 µM (active), respectively.
A word on the AC50: it is the concentration at which the activity in the assay is half-maximal. `C(#Cc1ccccc1)C[N+]1(CC#Cc2cccc3ccccc23)CCCC1`: the figures for the half-maximal activity concentration (AC50) in assay [8], in [10] and in assay [12] were 6.21 µM (active), 6.44 µM (active) and 15.2 µM (active), respectively. Further, the EC50 in [9] was > 150 µM (inconclusive); in assay [11], > 38 µM (not active). Besides, the IC50 in [1] was 5.07 µM (active).
Turning to `CCCCOc1ccc(CONS(=O)(=O)c2ccc(NC(C)=O)cc2)cc1Cl`, in assay [13], the IC50 is 4.47 µM (active).
For `CCCCCCCCn1c(=O)c(C(=O)OC)c(N)c2ccccc21`, in [10], the concentration at half-maximal activity (AC50) is 5.55 µM (active). For the same molecule, the IC50 in assay [13] was 6.4 µM (active).
On to `CCOc1ccc(/N=c2\scc(-c3ccc(OC)cc3)n2CCO)cc1`, for which, in assay [4], the EC50 was > 53 µM (inactive). Besides, the IC50 is > 20 µM (inactive) in assay [5] and 3.31 µM (active) in assay [7].
Turning to `O=C(Nc1nc2ccsc2c(=O)s1)c1cccs1`, the EC50 in [3] is > 100 µM (inactive).
